Tested on: HepG2 cells
Assay: Annexin V-FITC apoptosis assay
Assay type: cell-based, human
Details: for Apoptosis Early / Apoptosis Late / Necrosis: HepG2, 48 h, Annexin V-FITC/PI; for increase of early apoptosis ratio / increase of late apoptosis rate: HepG2, compared with untreated control cells
Procedure: HepG-2 cells were harvested and incubated with compounds 7b, 15b, 16a and 16c separately for 48 h. Then, the cells were collected and washed with PBS two successive times followed by centrifugation. After that, the cells were treated with Annexin V-FITC and propidium iodide (PI) using the apoptosis detection kit (BD Biosciences and Annexin V-FITC and PI binding were analyzed by a flow cytometer.
Early and late apoptosis was determined after treatment of HepG2 cells with compounds 7b, 15b, 16a and 16c compared with untreated control cells. The late apoptosis rate increased by about 13, 20, 4 and 3 times, respectively, showing a higher efficiency than the early apoptosis ratio 5, 2, 8 and 6 times, respectively.
As mentioned above, HepG-2 cells were collected and incubated separately with compounds 7b, 15b, 16a and 16c for 48 hr. Cells were then collected and washed twice consecutively with PBS and centrifuged. After that, the cells were treated with Annexin V-FITC and propidium iodide (PI) using an apoptosis detection kit (BD Biosciences, San Jose, CA) according to the manufacturer's instructions. The biding of Annexin V-FITC and PI was analyzed by ﬂow cytometer.

Compound: COc1ccc(C=C2C(=O)NC(=O)c3c2nn2c(C)cc(C)nc32)cc1 [Compound 7b]
- Apoptosis Early: 5.71%
- Apoptosis Late: 13.72%
- Necrosis: 5.46%
- apoptosis-inducing effect (HepG2, as stated in the abstract): 34.70%
- increase of early apoptosis ratio: 5 times
- increase of late apoptosis rate: about 13 times

Compound: Cc1cc(O)n2nc3c(c2n1)C(=O)NC(=O)C3=NNc1ccccc1 [Compound 16a, 4-Hydroxy-2-methyl-7-(2-phenylhydrazono)pyrido[4ʹ,3ʹ:3,4]pyrazolo[1,5-a]pyrimid-ine-8,10(7H,9H)-dione]
- Apoptosis Early: 8.26%
- Apoptosis Late: 4.32%
- Necrosis: 2.75%
- increase of early apoptosis ratio: 8 times
- increase of late apoptosis rate: ~4 times

Compound: COc1ccc(NN=C2C(=O)NC(=O)c3c2nn2c(O)cc(C)nc32)cc1 [Compound 16c, 4-Hydroxy-7-(2-(4-methoxyphenyl)hydrazono)-2-methylpyrido[4ʹ,3ʹ:3,4]pyrazolo[1,5-a]pyrimidine-8,10(7H,9H)-dione]
- Apoptosis Early: 6.31%
- Apoptosis Late: 3.20%
- Necrosis: 2.56%
- increase of early apoptosis ratio: 6 times
- increase of late apoptosis rate: ~3 times
